These results are taken from US20180028526A1, “NALMEFENE FOR REDUCTION OF ALCOHOL CONSUMPTION IN SPECIFIC TARGET POPULATIONS” (H. Lundbeck A/S, priority 2012, published 2018).

In assay [1] the test system is patients with alcohol dependence. In words: Studies 12014A, 12023A and 12013A taken together (statements on all three studies). It counts as in vivo, human. Conditions: for Difference between nalmefene and placebo in HDDs and TAC, compared with total study population: all three studies. From the text:
The efficacy of nalmefene in the reduction of alcohol consumption in patients with alcohol dependence (DSM-IV) has been evaluated in two efficacy studies (Study 12014A and Study 12023A) and one safety study (Study 12013A) as described in the examples. All three studies were randomized, double blind, parallel-group and placebo-controlled.
The studies included outpatients, aged […], with a primary diagnosis of alcohol dependence. A patient was eligible for participation in the study if, in the 4 weeks preceding the Screening Visit (Baseline period), he/she had >6 HDDs, at least a medium DRL (calculated as mean daily alcohol consumption in g/day i.e. >40 g/day for men and >20 g/day for women calculated as mean daily alcohol consumption over the 4 week period preceding the screening visit), and ≦14 consecutive abstinent days. The timeline followback (TLFB) method was used to obtain estimates of the patient's daily drinking.
At the initial visit (screening visit), the patients' clinical status, social situation, and alcohol consumption pattern were evaluated. After a 1- to 2-week observation period the drinking risk level was re-assessed by calculating mean daily alcohol consumption in g/day over the 1- to 2-week observation period, and treatment with nalmefene was initiated together with counseling with focus on motivating the patients to adhere to the treatment and to change their drinking behavior.
The efficacy of nalmefene was measured using two co-primary endpoints: the change in the monthly number of heavy drinking days (HDDs) and the change in the mean daily total alcohol consumption (TAC) per month (=28 days).
The efficacy of nalmefene on the reduction of alcohol consumption in patients with alcohol dependence (DSM-IV) was evaluated in two efficacy studies (Study 12014A and Study 12023A). Both studies were randomised, double blind, two-parallel group, placebo controlled, and after 6 months of treatment, patients receiving nalmefene were re-randomised to receive either placebo or nalmefene in a 1 month run out period. The efficacy of nalmefene was also evaluated in a randomised, double blind, two parallel group, placebo controlled 1 year safety study (Study 12013A). The studies included 1941 patients, 1144 of whom were treated with nalmefene 18 mg in an as-needed dosing regimen.
The efficacy of nalmefene was measured using two co-primary endpoints: the change in the monthly number of heavy drinking days (HDDs) and the change in the mean daily total alcohol consumption (TAC) per month (=28 days). A HDD was defined as a day with a consumption ≧60 g alcohol for men and 40 g for women. The change in HDD and TAC over time in patients treated with nalmefene or placebo is furthermore reflected in FIGS. 1a and 1b-12a and 12b.

Assay [2] deals with alcohol dependence. Conditions: 5, 20 and 40 mg daily doses; Anton et al. 2004; cited from earlier work.
Assay [3] relates to alcohol dependence. The following applies: 20 to 80 mg daily oral dosing; double-blind, placebo-controlled; Mason et al. 1999; cited from earlier work.
In assay [4] the test system is alcohol dependence. Conditions: 20 mg taken when the patient experienced a craving for alcohol; Karhuvaara et al. 2007; cited from earlier work.

Take `C=C1CC[C@@]2(O)[C@H]3Cc4ccc(O)c5c4[C@@]2(CCN3CC2CC2)[C@H]1O5` [nalmefene, 17-(cyclopropylmethyl)-4,5-alpha-epoxy-6-methylenemorphinan-3,14-diol]: the “Difference between nalmefene and placebo in HDDs and TAC, compared with total study population” value in assay [1] (patients excluding ERs) is listed as “more pronounced”; in assay [1] (patients with High DRL at baseline) it was “more pronounced”; in assay [1] (patients with High DRL at baseline and randomization), “more pronounced”. Also, in assay [1] (month 6, two 6 month efficacy studies and 12 month safety study, total study population), the “Reducing the number of HDDs and TAC versus placebo” value is “superior to placebo”. Moreover, in the assay with alcohol dependence [2], the “Superiority over placebo in the management of alcohol dependence” value is reported as “no evidence of superiority”. In addition, the “Effect in the management of alcohol dependence” value in the assay with alcohol dependence [3] was “good effect”. The “Effect over placebo in the management of alcohol dependence” value in the assay on alcohol dependence [4] is “good effect”.
